Experimental findings from patent publication US5731353A, “Stilbene derivatives and pharmaceutical compositions containing them” (Ajinomoto Co., Inc., priority 1993, dated 1998) are described below.

As a reminder, the solubility is the concentration that dissolves in the medium under given conditions.

The test system of series [1] is Mouse P388 leukemia cells. Briefly: Cytotoxicity Testing: 50% growth-inhibiting concentration, MTT method. In kind it is cell-based. To be noted: read-out: in vitro IC50 (50% growth-inhibiting concentration). The method, then: Mouse P388 leukemia cells were used as cancer cells for this test. The cancer cells were incubated in RPMI-1640 medium containing 5 μM 2-mercaptoethanol and 10% fetal calf serum. More specifically, the cancer cells were seeded in a 96-well microplate in an amount of 1×10^4cell/50 μl/well, 25 μl/well of an aqueous solution of the test compound mentioned below (4 μg/ml) were added to each well, and the cells were incubated therein for 2 days at 37° C. After the incubation, the number of the living cells was counted using the MTT method and a dose-reaction curve was formed from the counted data. Based on the curve, the 50% growth-inhibiting concentration (IC50) of the test compound was calculated. As a comparative compound, Combretastatin A-4 was used.
In general terms: Formazan colour is commonly taken as a measure of viable cells.

The subject of series [2] is Colon 26. Nature of the series: Evaluation of Antitumor Activity: Colon 26 inoculated sc into CD2F1 mice. The note with it: tumor volume 21 days after the day of administration. In kind it is in vivo. The method, then:
Colon 26 was inoculated sc into CD2F1 mice. After a week, the size of the tumor was measured and the volume of the tumor was calculated. Mice were selected on the basis of the volume of the tumor and administration of drug was begun. Twenty-one days after the day of administration, the size of the tumor was measured and the volume of the tumor was calculated. The inhibition ratio of growth of tumor (I.R.) was calculated as shown below. I.R.(%)={1-(Average Tumor Volume of Treated Mice)/(Average Tumor Volume of Control Mice)}×100

The nature of series [3]: Solubility in phosphate buffer (pH 7.0), HPLC of supernatant. In kind it is physicochemical. The method, then:
An excess amount of each sample was dissolved in 0.1 ml of phosphate buffer (PH 7.0). The mixture was sonicated and centrifuged. The supernatant was subjected to HPLC and the solubility was measured.

Setting [4] is: 48 h, mouse P388 leukemia cells, 2 days at 37° C., MTT method.
Where [5] appears, read: 40 mg/day, once a day on day 1, day 5 and day 7, perorally.
The mark [6] stands for this setting: aqueous buffer, pH 7.0, read-out: Solubility in Phosphate Buffer (PH 7.0).
Where [7] appears, read: 40 mg/day, once a day on day 1, day 5 and day 7, intravenously.

The structures appear in SMILES notation. Values after ≈ are worked out from the molar mass of the structure shown. Read-outs that look alike come from different tables or passages of the source. Bounds are passed on as bounds.

`COc1cc(/C(C#N)=C\c2ccc(C)c(N)c2)cc(OC)c1OC` [(E)-3-(3-amino-4-methylphenyl)-2-(3,4,5-trimethoxyphenyl)-prop-2-ene-nitrile]: the IC50 in series [1] (setting [4]) worked out at 2 ng/mL (≈ 0.00617 µM). Further, the “in vivo I.R. (inhibition ratio of growth of tumor)” value in series [2] (setting [5]) stood at 41.0%.
As to `COc1cc(/C=C\c2ccc(Cl)c(N)c2)cc(OC)c1OC` [(Z)-1-(3-amino-4-chlorophenyl)-2-(3,4,5-trimethoxyphenyl)ethene], in series [1] (Mus musculus, P388, 48 h), the IC50 came out at 20 ng/mL (≈ 0.0625 µM).
In the case of `COc1ccc(/C=C(/C#N)c2cc(OC)c(OC)c(OC)c2)cc1N` [(E)-3-(3-amino-4-methoxyphenyl)-2-(3,4,5-trimethoxyphenyl)-prop-2-ene-nitrile], the IC50 in series [1] (setting [4]) came to 0.2 ng/mL (≈ 0.000588 µM). Also, the “in vivo I.R. (inhibition ratio of growth of tumor)” value in series [2] (10 mg/day, once a day from day 1 to day 10, intravenously) is 83.4%. For the same molecule, the solubility in series [3] (setting [6]) came out at 1700 µg/mL (≈ 4990 µM).
Take `COc1ccc(/C=C\c2cc(OC)c(OC)c(OC)c2)cc1N` [(Z)-1-(3-Amino-4-methoxyphenyl)-2-(3,4,5-trimethoxyphenyl)ethene]: in series [1] (setting [4]), the IC50 was determined as 0.2 ng/mL (≈ 0.000634 µM). Moreover, in series [2] (setting [7]), the “in vivo I.R. (inhibition ratio of growth of tumor)” value stood at 69.5%. In addition, in series [3] (setting [6]), the solubility turned out to be 34000 µg/mL (≈ 108000 µM).
Take `COc1cc(/C=C\c2ccc(C)c(N)c2)cc(OC)c1OC` [(Z)-1-(3-amino-4-methylphenyl)-2-(3,4,5-trimethoxyphenyl)ethene]: the IC50 in series [1] (Mus musculus, P388, 48 h) was found to be 3.5 ng/mL (≈ 0.0117 µM). In addition, the “in vivo I.R. (inhibition ratio of growth of tumor)” value in series [2] (setting [7]) came to 61.6%.
For the molecule `COc1cc(/C(C#N)=C\c2ccc(Cl)c(N)c2)cc(OC)c1OC` [(E)-3-(3-amino-4-chlorophenyl)-2-(3,4,5-trimethoxyphenyl)-prop-2-ene-nitrile], the IC50 in series [1] (setting [4]) worked out at 1.8 ng/mL (≈ 0.00522 µM). In addition, in series [2] (80 mg/day, once a day on day 1, day 5 and day 7, perorally), the “in vivo I.R. (inhibition ratio of growth of tumor)” value was 23.7%.
Take `COc1ccc(/C=C\c2cc(OC)c(OC)c(OC)c2)cc1O` [Combretastatin A-4, reference compound]: the IC50 in series [1] (setting [4]) came out at 0.2 ng/mL (≈ 0.000632 µM). In series [2] (setting [5]), the “in vivo I.R. (inhibition ratio of growth of tumor)” value is 4.6%. In series [3] (pH 7, aqueous buffer), this molecule returned a solubility of less than 100 µg/mL.
